In patent US20110059910A1, “Novel aromatic fluoroglycoside derivatives, pharmaceuticals comprising said compounds and the use thereof” (SANOFI-AVENTIS, priority 2008, published 2011):

Target: T1, human sodium-dependent glucose transporter 2 (SGLT2, SLC5A2) (Homo sapiens, UniProt P31639)
T1 construct: Bases 21 to 2039 correspond to the complete coding region of human SGLT2; expressed in transfected cells
T1 sequence (P31639 1-672): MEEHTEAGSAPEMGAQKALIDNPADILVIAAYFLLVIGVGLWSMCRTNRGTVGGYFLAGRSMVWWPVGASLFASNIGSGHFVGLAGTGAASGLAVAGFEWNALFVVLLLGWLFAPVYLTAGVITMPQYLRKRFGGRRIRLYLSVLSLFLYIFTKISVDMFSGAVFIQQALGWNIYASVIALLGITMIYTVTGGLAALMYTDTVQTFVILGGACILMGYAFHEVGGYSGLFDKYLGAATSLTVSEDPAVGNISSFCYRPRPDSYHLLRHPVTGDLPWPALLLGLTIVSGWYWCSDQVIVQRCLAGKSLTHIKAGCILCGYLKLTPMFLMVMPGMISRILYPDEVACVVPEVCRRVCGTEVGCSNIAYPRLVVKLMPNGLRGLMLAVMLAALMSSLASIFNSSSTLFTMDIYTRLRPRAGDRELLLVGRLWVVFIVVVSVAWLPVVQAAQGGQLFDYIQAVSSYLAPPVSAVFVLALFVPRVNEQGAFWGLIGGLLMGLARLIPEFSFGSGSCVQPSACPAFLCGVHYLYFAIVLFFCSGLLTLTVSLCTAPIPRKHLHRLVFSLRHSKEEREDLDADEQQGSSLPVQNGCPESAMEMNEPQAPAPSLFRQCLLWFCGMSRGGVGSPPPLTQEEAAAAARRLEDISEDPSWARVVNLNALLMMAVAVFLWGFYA
Experiment: Inhibition of the transport activity of human SGLT2 in vitro (α-MDG uptake in CHO-TRex-hSGLT2 cells)
Format: cell-based
Conditions: 50 μM α-MDG, 120 min at 37° C.
Excerpt: Inhibition of the Transport Activity of the Human Sodium-Dependent Glucose Transporter 2 (SGLT2, SLC5A2) In Vitro
1. Cloning of an Expression Vector for Human SGLT2
The cDNA for human SGLT2 was introduced into the pcDNA4/TO vector (Invitrogen) by means of standard methods of molecular biology as described in Sambrook et al. (Molecular Cloning, A Laboratory Manual, Second Edition). […] Bases 21 to 2039 correspond to the complete coding region of human SGLT2.
2. Production of a Recombinant Cell Line with Inducible Expression of Human SGLT2
The expression vector for human SGLT2 was introduced into CHO-TREx cells (Invitrogen) by means of FuGene6 lipofection (Roche). To select single cell clones, 600 μg/ml of Zeocin (Invitrogen) was added to the cell culture medium (nutrient mixture F-12 (Ham), (Invitrogen) supplemented with 10% fetal calf serum (FBS Gold, PAA), 10 μg/ml Blasticidin S(CN Biosciences), 100 units/ml penicillin, 100 units/ml streptomycin). The functionality of the single cell clones resulting from the selection was tested via their uptake activity for radiolabeled methyl-α-D-glucopyranoside. That cell clone with the highest uptake activity for methyl-α-D-glucopyranoside, referred to hereinafter as CHO-TRex-hSGLT2, was selected for the further experiments and cultured further in the presence of 600 μg/ml Zeocin.
3. Measurement of the Inhibiting Action of Test Substances on the Uptake of methyl-α-D-glucopyranoside (α-MDG)
CHO-TRex-hSGLT2 cells were seeded in cell culture medium in a concentration of 50 000 cells per well in Cytostar-T scintillating 96-well plates (Amersham Biosciences) and cultivated for 24 h. The expression of the recombinant human SGLT2 was induced by adding 1 μg/ml tetrazykline for a further 24 h. For α-MDG uptake experiments, the cells were washed with PBS and then starved at 37° C. in starvation medium (PBS supplemented with 10% fetal calf serum) for 1 hour. After a further washing step with transport assay buffer (140 mM sodium chloride, 2 mm potassium chloride, 1 mm magnesium chloride, 1 mm calcium chloride, 10 mm HEPES/Tris, pH 7.5), the cells were incubated at room temperature either in the absence or presence of test substances of different concentration for 15 min. The test substances were diluted correspondingly in transport assay buffer proceeding from a 10 mm stock solution in dimethyl sulfoxide (40 μl/well). The assay was subsequently started by adding 10 μl/well of a mixture of radiolabeled methyl-α-D-[U-^14C]glucopyranoside (Amersham) and unlabeled methyl-α-D-glucopyranoside (Acros). The final concentration of methyl-α-D-glucopyranoside in the assay was 50 μM. After an incubation time of 120 min at 37° C., the reaction was stopped by adding 50 μl/well of 10 mM methyl-α-D-glucopyranoside in transport assay buffer (4° C.), and the radioactivity taken up into the cells was determined in a MicroBeta Scintillation Microplate Reader (Wallac).
The half-maximum inhibiting action of the test substances (IC50 value) was determined as follows: • 1. Determination of the value for 0% inhibition. This is the measurement in the absence of substance, measured in sodium-containing transport assay buffer. • 2. Determination of the value for 100% inhibition. This is the measurement in the absence of substance, measured in sodium-free transport assay buffer (140 mM choline chloride, 2 mM potassium chloride, 1 mM magnesium chloride, 1 mM calcium chloride, 10 mM HEPES/Tris, pH7.5). • 3. Calculation of the percentage inhibition values of those measurements which were carried out in the presence of different concentrations of test substance. From this, it was then possible to determine that concentration of the test substance which reduces the uptake of the methyl-α-D-glucopyranoside by 50% (IC50 value).

IC50 [nM] | SMILES
75 | OC[C@H]1O[C@@H](c2ccc(Cl)c(Cc3ccc(Cl)cc3)c2)[C@H](O)[C@@H](O)C1(F)F [Example 46]
976 | CCOC(=O)OCC1OC(c2ccc(Cl)c(Cc3ccc(OC(F)(F)F)cc3)c2)C(O)C(O)C1F (centres unmarked) [Example 24]
1400 | CCOC(=O)OCC1OC(c2ccc(F)c(Cc3ccc(OC)cc3)c2)C(O)C(O)C1(F)F (centres unmarked) [Example 10]
12600 | CCOC(=O)OCC1OC(c2ccc(Cl)c(Cc3ccc(OC)cn3)c2)C(O)C(O)C1F (centres unmarked) [Example 35]
2700 | CCOC(=O)OCC1OC(c2ccc(Cl)c(Cc3ccc(OCC)cc3)c2)C(O)C(O)C1F (centres unmarked) [Example 16]
15 | OC[C@H]1O[C@@H](c2ccc(Cl)c(Cc3ccc(O)cc3)c2)[C@H](O)[C@@H](O)C1(F)F [Example 30]
8 | CCc1ccc(Cc2cc(C3OC(CO)C(F)C(O)C3O)ccc2Cl)cc1 (centres unmarked) [Example 3]
10 | CCc1ccc(Cc2cc(C3OC(CO)C(F)C(O)C3O)ccc2C)cc1 (centres unmarked) [Example 61]
393 | COc1ccc(Cc2cc(C3OC(CO)C(F)(F)C(O)C3O)ccc2Cl)nc1 (centres unmarked) [Example 38]
2700 | CCOC(=O)OCC1OC(c2ccc(OC)c(Cc3ccc(OC)cc3)c2)C(O)C(O)C1F (centres unmarked) [Example 12]
897 | CCOC(=O)OCC1OC(c2ccc(Cl)c(Cc3ccc(OCC)cc3)c2)C(O)C(O)C1(F)F (centres unmarked) [Example 18]
> 10000 | CCOC(=O)OCC1OC(c2ccc(Cl)c(Cc3ccc(OC(F)(F)F)cc3)c2)C(O)C(O)C1(F)F (centres unmarked) [Example 26]
10 | CCOc1ccc(Cc2cc(C3OC(CO)C(F)C(O)C3O)ccc2Cl)cc1 (centres unmarked) [Example 17]
80 | COc1ccc(Cc2cc(C3OC(CO)C(F)(F)C(O)C3O)ccc2OC)cc1 (centres unmarked) [Example 15]
982 | COc1ccc(Cc2cc([C@@H]3O[C@H](CO)C(F)(F)[C@H](O)[C@H]3O)ccc2OC(F)(F)F)cc1 [Example 42]
304 | COc1ccc(Cc2cc(C3OC(CO)C(F)C(O)C3O)ccc2Cl)nc1 (centres unmarked) [Example 36]
9.4 | COc1ccc(Cc2cc(C3OC(CO)C(F)C(O)C3O)ccc2Br)cc1 (centres unmarked) [Example 56]
12800 | CCOC(=O)OC[C@H]1O[C@@H](c2ccc(OC(F)(F)F)c(Cc3ccc(OC)cc3)c2)[C@H](O)[C@@H](O)C1(F)F [Example 41]
412 | COc1ccc(Cc2cc([C@@H]3O[C@H](CO)[C@@H](F)[C@H](O)[C@H]3O)ccc2OC(F)(F)F)cc1 [Example 40]
54 | COc1ccc(Cc2cc(C3OC(CO)C(F)(F)C(O)C3O)ccc2F)cc1 (centres unmarked) [Example 11]
19800 | CCOC(=O)OC[C@H]1O[C@@H](c2ccc(OC(F)(F)F)c(Cc3ccc(OC)cc3)c2)[C@H](O)[C@@H](O)[C@@H]1F [Example 39]

IC50 [nM] | SMILES
11200 | CCOC(=O)OCC1OC(c2ccc(Cl)c(Cc3ccc(OC)cn3)c2)C(O)C(O)C1(F)F (centres unmarked) [Example 37]
8000 | CCOC(=O)OC[C@H]1O[C@@H](c2ccc(C(F)(F)F)c(Cc3ccc(OC)cc3)c2)[C@H](O)[C@@H](O)C1(F)F [Example 49]
74 | COc1ccc(Cc2cc([C@@H]3O[C@H](CO)[C@@H](F)[C@H](O)[C@H]3O)ccc2C(F)(F)F)cc1 [Example 48]
24 | OC[C@H]1O[C@@H](c2ccc(Cl)c(Cc3ccc(Cl)cc3)c2)[C@H](O)[C@@H](O)[C@@H]1F [Example 44]
41 | OCC1OC(c2ccc(Cl)c(Cc3ccc(OC(F)(F)F)cc3)c2)C(O)C(O)C1F (centres unmarked) [Example 25]
15 | OCC1OC(c2ccc(Cl)c(Cc3cc4ccccc4s3)c2)C(O)C(O)C1F (centres unmarked) [Example 7]
12 | CCc1ccc(Cc2cc(C3OC(CO)C(F)(F)C(O)C3O)ccc2Cl)cc1 (centres unmarked) [Example 1]
154 | COc1ccc(Cc2cc([C@@H]3O[C@H](CO)C(F)(F)[C@H](O)[C@H]3O)ccc2C(F)(F)F)cc1 [Example 50]
9 | COc1ccc(Cc2cc(C3OC(CO)C(F)(F)C(O)C3O)ccc2Cl)cc1 (centres unmarked) [Example 22]
38 | Cc1ccc(C2OC(CO)C(F)(F)C(O)C2O)cc1Cc1ccc(O)cc1 (centres unmarked) [Example 33]
31 | COc1ccc(Cc2cc(C3OC(CO)C(F)C(O)C3O)ccc2OC)cc1 (centres unmarked) [Example 13]
199 | OCC1OC(c2ccc(Cl)c(Cc3ccc(OC(F)(F)F)cc3)c2)C(O)C(O)C1(F)F (centres unmarked) [Example 27]
5 | COc1ccc(Cc2cccc(C3OC(CO)C(F)C(O)C3O)c2)cc1 (centres unmarked) [Example 5]
32 | COc1ccc(Cc2cc(C3OC(CO)C(F)C(O)C3O)ccc2F)cc1 (centres unmarked) [Example 9]
12 | CCc1ccc(Cc2cc(C3OC(CO)C(F)C(O)C3O)ccc2Cl)s1 (centres unmarked) [Example 6]
18 | CCOc1ccc(Cc2cc(C3OC(CO)C(F)(F)C(O)C3O)ccc2Cl)cc1 (centres unmarked) [Example 2]
42 | CC(C)Oc1ccc(Cc2cc([C@@H]3O[C@H](CO)C(F)(F)[C@H](O)[C@H]3O)ccc2Cl)cc1 [Example 31]
1400 | CCOC(=O)OCC1OC(c2ccc(F)c(Cc3ccc(OC)cc3)c2)C(O)C(O)C1F (centres unmarked) [Example 8]
339 | CCOC(=O)OCC1OC(c2ccc(Cl)c(Cc3ccc(OC)cc3)c2)C(O)C(O)C1(F)F (centres unmarked) [Example 21]
27 | COc1ccc(Cc2cc(C3OC(CO)C(F)(F)C(O)C3O)ccc2C)cc1 (centres unmarked) [Example 34]
